Experimental data: the NIST ThermoML archive (doi:10.1016/j.tca.2015.02.020)

Assay: molar heat capacity at constant pressure; xn = mol fraction of the nth substance listed
Settings: 101 kPa, Small sample (50 mg) DSC

CC(O)CN (stereo unspecified) [1-amino-2-propanol] + O
Settings | molar heat capacity at constant pressure [J/K/mol]
155.68 K, Glass, x1 = 0.15 | 35.88
155.68 K, Glass, x1 = 0.16 | 37.74
155.68 K, Glass, x1 = 0.19 | 36.94
155.68 K, Glass, x1 = 0.26 | 40.42
155.84 K, Glass, x1 = 0.68 | 59.11
160.38 K, Glass, x1 = 0.16 | 40.45
160.38 K, Glass, x1 = 0.19 | 38.97
160.38 K, Glass, x1 = 0.26 | 42.39
160.4 K, Glass, x1 = 0.15 | 39.07
160.41 K, Glass, x1 = 0.19 | 35.79
160.41 K, Glass, x1 = 0.26 | 41.07
160.54 K, Glass, x1 = 0.68 | 60.82
160.55 K, Glass, x1 = 0.15 | 35.88
160.56 K, Glass, x1 = 0.16 | 34.48
160.57 K, Glass, x1 = 0.68 | 63.09
163.7 K, Glass, x1 = 0.19 | 36.66
163.7 K, Glass, x1 = 0.26 | 42.39
163.84 K, Glass, x1 = 0.15 | 37.74
163.85 K, Glass, x1 = 0.16 | 35.57
163.85 K, Glass, x1 = 0.68 | 64.8
165.08 K, Glass, x1 = 0.19 | 42.72
165.08 K, Glass, x1 = 0.26 | 45.68
165.25 K, Glass, x1 = 0.68 | 64.8
170.29 K, Glass, x1 = 0.19 | 40.7
170.3 K, Glass, x1 = 0.26 | 46
170.45 K, Glass, x1 = 0.68 | 68.21
173.75 K, Glass, x1 = 0.68 | 73.89
183.93 K, Liquid, x1 = 0.26 | 85.44
184.09 K, Liquid, x1 = 0.68 | 124.48
188.66 K, Liquid, x1 = 0.26 | 85.11
188.82 K, Liquid, x1 = 0.68 | 125.62
190.11 K, Liquid, x1 = 0.19 | 83.13
190.11 K, Liquid, x1 = 0.26 | 88.06
190.26 K, Liquid, x1 = 0.15 | 76.81
190.26 K, Liquid, x1 = 0.68 | 135.28
190.27 K, Liquid, x1 = 0.16 | 77.92
193.38 K, Liquid, x1 = 0.26 | 84.78
193.42 K, Liquid, x1 = 0.19 | 81.97
193.42 K, Liquid, x1 = 0.26 | 87.74
193.54 K, Liquid, x1 = 0.68 | 126.75
193.57 K, Liquid, x1 = 0.15 | 76.28
193.58 K, Liquid, x1 = 0.16 | 77.11
193.58 K, Liquid, x1 = 0.68 | 135.28
198.11 K, Liquid, x1 = 0.16 | 79.01
198.11 K, Liquid, x1 = 0.26 | 84.78
198.13 K, Liquid, x1 = 0.15 | 73.89
198.27 K, Liquid, x1 = 0.68 | 126.75
200.05 K, Liquid, x1 = 0.19 | 80.53
200.05 K, Liquid, x1 = 0.26 | 87.74
200.19 K, Liquid, x1 = 0.15 | 76.02
200.19 K, Liquid, x1 = 0.68 | 136.41
200.2 K, Liquid, x1 = 0.16 | 76.29
202.84 K, Liquid, x1 = 0.19 | 80.53
202.84 K, Liquid, x1 = 0.26 | 85.44
202.85 K, Liquid, x1 = 0.16 | 79.28
202.87 K, Liquid, x1 = 0.15 | 74.69
203 K, Liquid, x1 = 0.68 | 126.75
203.35 K, Liquid, x1 = 0.19 | 80.24
203.36 K, Liquid, x1 = 0.26 | 88.06
203.5 K, Liquid, x1 = 0.15 | 75.75
203.5 K, Liquid, x1 = 0.68 | 136.98
203.51 K, Liquid, x1 = 0.16 | 76.29
207.57 K, Liquid, x1 = 0.19 | 80.82
207.57 K, Liquid, x1 = 0.26 | 86.42
207.58 K, Liquid, x1 = 0.16 | 79.82
207.6 K, Liquid, x1 = 0.15 | 75.49
